From US10040791B2, “Isoxazole derivative as mutant isocitrate dehydrogenase 1 inhibitor” (Daiichi Sankyo Company, Limited, priority 2014, dated 2018)
pIC50: −log10 of the molar value. Counter-ions that a name gives are not always drawn.

Experiments:
IDH1R132C = IDH1R132C (Homo sapiens (Human), UniProt O75874, R132C); assay: Inhibitory activity against IDH1R132C enzyme (NADPH detection, WST-8); assay type: biochemical; conditions: 10 nM, residual NADPH detected with WST-8, read-out: Test Example 1 IDH1 R132C IC50
Chain of IDH1R132C (O75874 whole entry R132C): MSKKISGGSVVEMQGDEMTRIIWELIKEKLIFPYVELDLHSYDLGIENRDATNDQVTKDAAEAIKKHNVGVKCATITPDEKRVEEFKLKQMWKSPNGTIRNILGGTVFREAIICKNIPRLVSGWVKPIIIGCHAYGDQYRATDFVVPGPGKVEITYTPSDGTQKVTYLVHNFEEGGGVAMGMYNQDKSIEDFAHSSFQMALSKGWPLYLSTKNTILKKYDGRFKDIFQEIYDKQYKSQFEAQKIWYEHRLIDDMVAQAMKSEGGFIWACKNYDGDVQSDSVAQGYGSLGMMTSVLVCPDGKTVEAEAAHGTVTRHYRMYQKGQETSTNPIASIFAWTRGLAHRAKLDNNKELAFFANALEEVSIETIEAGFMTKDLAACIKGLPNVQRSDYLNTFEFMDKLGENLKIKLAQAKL

[1] = tested on: HT-1080 cells expressing IDH1R132C; assay: 2-HG production inhibitory activity using HT1080 cell; assay type: cell-based, human; conditions: Homo sapiens, HT-1080; 2-HG production, HT1080 cells; read-out: Test Example 3 IC50
Protocol: Then, 100 μL of growth medium B was added to each well, further 25 μL of a solution of each compound diluted to a predetermined concentration with growth medium B was added to each well, and the cells were incubated at 37° C. for 2 days under 5% CO2. […] Then, 150 μL of ultrapure water was further added to each well, and the mixture was stirred by pipetting and stored at −20° C.
The preserved solutions were thawed at room temperature.

[2] = tested on: HT1080 xenografted mice (IDH1R132C); assay: 2-HG production inhibitory activity using HT1080 xenografted mice; assay type: in vivo, mouse; conditions: 2-HG production, HT1080 xenografted mice; for response vs control in vivo at 75 mg/kg: Mus musculus, HT-1080, po, 6 h, read-out: Test Example 5 Ratio (%)
Protocol: HT1080 xenografted mice having successfully engrafted tumors were given by oral gavage each compound at 75 mg/kg a total of three times twice a day. The compound was suspended in a vehicle solution at 7.5 mg/mL using a homogenizer. Then, the suspension was stored at −20° C., thawed immediately before the administration, and given to mice. A negative control group for the test was given a vehicle by oral gavage. The body weights of the mice were measured using an automatic balance for small animals. The dosing solution was administered at a dose of 10 mL/kg body weight.
6 hours after the final administration, each mouse was euthanized with carbon dioxide. A portion of a tumor was collected, and its weight was measured using an electronic balance. Then, the tumor was frozen on dry ice. To the frozen tumor, methanol was added in an amount of 14 times the tumor weight. The resulting tumor was homogenized with Beads shocker (Yasui Kikai Corp.) and then incubated for 15 minutes in a freezer at −20° C. After centrifugation at 15000 rpm at 4° C. for 15 minutes using a high-speed refrigerated microcentrifuge, 250 μL of methanol and 400 μL of ultrapure water were added to 150 μL of the obtained supernatant. The prepared samples were subjected to 2-HG measurement.

Structure (SMILES) | pIC50 (IDH1R132C) | pIC50 [1] | response vs control in vivo at 75 mg/kg [2] | Test Example 5 Ratio (%) [2]
Cc1cn(C(=O)c2c(-c3c(Cl)cccc3Cl)noc2C(C)(C)F)c2cccc(/C=C/C(=O)O)c12 [Example 53, (2E)-3-(1-{[3-(2,6-Dichlorophenyl)-5-(2-fluoropropan-2-yl)-1,2-oxazol-4-yl]carbonyl}-3-methyl-1H-indol-4-yl)prop-2-enoic acid] | 6.79 | 6.84 | 60% | –
Cc1cc(Cl)cc(C)c1-c1noc(C(C)(C)F)c1C(=O)n1cc(C)c2c(/C=C/C(=O)O)cccc21 [Example 171, (2E)-3-(1-{[3-(4-Chloro-2,6-dimethylphenyl)-5-(2-fluoropropan-2-yl)-1,2-oxazol-4-yl]carbonyl}-3-methyl-1H-indol-4-yl)prop-2-enoic acid tert-butylamine salt] | – | – | – | 22%
Cc1cn(C(=O)c2c(-c3c(F)cc(Cl)cc3Cl)noc2C(C)(C)F)c2cccc(/C=C/C(=O)O)c12 [Example 169, (2E)-3-(1-{[3-(2,4-Dichloro-6-fluorophenyl)-5-(2-fluoropropan-2-yl)-1,2-oxazol-4-yl]carbonyl}-3-methyl-1H-indol-4-yl)prop-2-enoic acid tert-butylamine salt] | – | – | – | 17%
Cc1cn(C(=O)c2c(-c3ccc(Cl)cc3Cl)noc2C(C)(C)F)c2cccc(/C=C/C(=O)O)c12 [Example 173, (2E)-3-(1-{[3-(2,4-Dichlorophenyl)-5-(2-fluoropropan-2-yl)-1,2-oxazol-4-yl]carbonyl}-3-methyl-1H-indol-4-yl)prop-2-enoic acid tert-butylamine salt] | – | – | – | 2%
Cn1cc(C(=O)c2c(-c3c(Cl)cc(Cl)cc3Cl)noc2C(C)(C)C)c2ccc3ccc(C(=O)O)cc3c21 [Example 167, 3-{[5-tert-Butyl-3-(2,4,6-trichlorophenyl)-1,2-oxazol-4-yl]carbonyl}-1-methyl-1H-benzo[g]indole-8-carboxylic acid] | 6.71 | 6.71 | 87% | –
CC(C)(F)c1onc(-c2c(Cl)cc(Cl)cc2Cl)c1C(=O)n1cc2c3c(c(F)ccc31)/C(=C/C(=O)O)CC2 [Example 67, (2E)-[6-Fluoro-1-{[5-(2-fluoropropan-2-yl)-3-(2,4,6-trichlorophenyl)-1,2-oxazol-4-yl]carbonyl}-3,4-dihydrobenzo[cd]indol-5(1H)-ylidene]ethanoic acid] | 6.81 | 7.02 | 27% | –
Cc1cn(C(=O)c2c(-c3c(Cl)cc(Cl)cc3Cl)noc2C(F)(F)F)c2cccc(/C=C/C(=O)O)c12 [Example 61, (2E)-3-(3-Methyl-1-{[3-(2,4,6-trichlorophenyl)-5-(trifluoromethyl)-1,2-oxazol-4-yl]carbonyl}-1H-indol-4-yl)prop-2-enoic acid] | – | 6.47 | 63% | –
Cc1cn(C(=O)c2c(-c3c(Cl)cc(Cl)cc3Cl)noc2C(C)(C)F)c2cccc(/C=C/C(=O)O)c12 [Example 168, (2E)-3-(1-{[5-(2-Fluoropropan-2-yl)-3-(2,4,6-trichlorophenyl)-1,2-oxazol-4-yl]carbonyl}-3-methyl-1H-indol-4-yl)prop-2-enoic acid tert-butylamine salt] | – | – | 13% | –
Cc1cn(C(=O)c2c(-c3c(F)cc(Cl)cc3F)noc2C(C)(C)F)c2cccc(/C=C/C(=O)O)c12 [Example 170, (2E)-3-(1-{[3-(4-Chloro-2,6-difluorophenyl)-5-(2-fluoropropan-2-yl)-1,2-oxazol-4-yl]carbonyl}-3-methyl-1H-indol-4-yl)prop-2-enoic acid tert-butylamine salt] | – | – | – | 35%
Cc1cn(C(=O)c2c(-c3c(Cl)cc(Cl)cc3Cl)noc2C2(C#N)CCC2)c2cccc(/C=C/C(=O)O)c12 [Example 93, (2E)-3-(1-{[5-(1-Cyanocyclobutyl)-3-(2,4,6-trichlorophenyl)-1,2-oxazol-4-yl]carbonyl}-3-methyl-1H-indol-4-yl)prop-2-enoic acid] | – | 7.38 | 119% | –
Cc1cc(Cl)cc(Cl)c1-c1noc(C(C)(C)F)c1C(=O)n1cc(C)c2c(/C=C/C(=O)O)cccc21 [Example 172, (2E)-3-(1-{[3-(2,4-Dichloro-6-methylphenyl)-5-(2-fluoropropan-2-yl)-1,2-oxazol-4-yl]carbonyl}-3-methyl-1H-indol-4-yl)prop-2-enoic acid tert-butylamine salt] | – | – | – | 8%

Continued, in another order:

pIC50 (IDH1R132C) | pIC50 [1] | Structure (SMILES) | response vs control in vivo at 75 mg/kg [2] | Test Example 5 Ratio (%) [2]
6.65 | 6.56 | C=CC(=O)N1C[C@@H](C)N(c2onc(-c3c(Cl)cc(Cl)cc3Cl)c2C(=O)n2ccc3c(/C=C/C(=O)O)cccc32)C[C@H]1C [Example 152, (2E)-3-[1-({5-[(2R,5R)-4-Acryloyl-2,5-dimethylpiperazin-1-yl]-3-(2,4,6-trichlorophenyl)-1,2-oxazol-4-yl}carbonyl)-1H-indol-4-yl]prop-2-enoic acid] | 87% | –
6.71 | 6.34 | CC(C)(F)c1onc(-c2c(F)cc(Cl)cc2Cl)c1C(=O)n1ccc2c(/C=C/C(=O)O)cccc21 [Example 46, (2E)-3-(1-{[3-(2,4-Dichloro-6-fluorophenyl)-5-(2-fluoropropan-2-yl)-1,2-oxazol-4-yl]carbonyl}-1H-indol-4-yl)prop-2-enoic acid] | 69% | –
7.01 | 7.39 | C=CC(=O)N1CCN(c2onc(-c3c(Cl)cc(Cl)cc3Cl)c2C(=O)n2ccc3c(/C=C/C(=O)O)cccc32)C2(CC2)C1 [Example 150, (2E)-3-(1-{[5-[7-Acryloyl-4,7-diazaspiro[2.5]oct-4-yl]-3-(2,4,6-trichlorophenyl)-1,2-oxazol-4-yl]carbonyl}-1H-indol-4-yl)prop-2-enoic acid] | 18% | –
7.01 | 7.21 | Cc1cn(C(=O)c2c(-c3c(F)cc(Cl)cc3Cl)noc2C(C)(C)F)c2cccc(/C=C/C(=O)O)c12 [Example 47, (2E)-3-(1-{[3-(2,4-Dichloro-6-fluorophenyl)-5-(2-fluoropropan-2-yl)-1,2-oxazol-4-yl]carbonyl}-3-methyl-1H-indol-4-yl)prop-2-enoic acid] | 17% | –
6.84 | 7.15 | C=CC(=O)N(C)C1(c2onc(-c3c(Cl)cc(Cl)cc3Cl)c2C(=O)n2cc(C)c3c(/C=C/C(=O)O)cccc32)CCC1 [Example 87, (2E)-3-(1-{[5-{1-[Acryloyl(methyl)amino]cyclobutyl}-3-(2,4,6-trichlorophenyl)-1,2-oxazol-4-yl]carbonyl}-3-methyl-1H-indol-4-yl)prop-2-enoic acid] | 68% | –
6.93 | 6.83 | CC1(c2onc(-c3c(Cl)cc(Cl)cc3Cl)c2C(=O)n2ccc3c(/C=C/C(=O)O)cccc32)CC1 [Example 37, (2E)-3-(1-{[5-(1-Methylcyclopropyl)-3-(2,4,6-trichlorophenyl)-1,2-oxazol-4-yl]carbonyl}-1H-indol-4-yl)prop-2-enoic acid] | 35% | –
6.82 | 6.83 | C=CC(=O)N1CCN(c2onc(-c3c(Cl)cc(Cl)cc3Cl)c2C(=O)n2ccc3c(/C=C/C(=O)O)cccc32)CC1 [Example 143, (2E)-3-(1-{[5-(4-Acryloylpiperazin-1-yl)-3-(2,4,6-trichlorophenyl)-1,2-oxazol-4-yl]carbonyl}-1H-indol-4-yl)prop-2-enoic acid] | 60% | –
7.33 | 7.74 | Cc1cn(C(=O)c2c(-c3c(Cl)cc(Cl)cc3Cl)noc2C2(C)COC2)c2cccc(/C=C/C(=O)O)c12 [Example 2, (2E)-3-(3-Methyl-1-{[5-(3-methyloxetan-3-yl)-3-(2,4,6-trichlorophenyl)-1,2-oxazol-4-yl]carbonyl}-1H-indol-4-yl)prop-2-enoic acid] | 18% | –
6.52 | 7.49 | C=CC(=O)N1CCC(c2onc(-c3c(Cl)cc(Cl)cc3Cl)c2C(=O)n2cc(C)c3c(CCC(=O)O)cccc32)CC1 [Example 115] | 12% | –
– | 6.48 | Cn1cc(C(=O)c2c(-c3c(Cl)cc(Cl)cc3Cl)noc2C(C)(C)C)c2cccc(/C=C/C(=O)O)c21 [Example 164] | 89% | –
– | 6.55 | Cc1cn(C(=O)c2c(-c3ccc(Cl)cc3Cl)noc2C2(C)COC2)c2cccc(/C=C/C(=O)O)c12 [Example 78, (2E)-3-(1-{[3-(2,4-Dichlorophenyl)-5-(3-methyloxetan-3-yl)-1,2-oxazol-4-yl]carbonyl}-3-methyl-1H-indol-4-yl)prop-2-enoic acid] | 50% | –
